According to article PMC4236014, “Intestine-Targeted DGAT1 Inhibition Improves Obesity and Insulin Resistance without Skin Aberrations in Mice” (PLoS ONE, 2014):
Where “and” joins values, the source holds several entries; their conditions need not be identical. Equal entries are not always repeated. Entries after “also recorded” stand apart in the source; their conditions may differ.

Experiments:
Log D (lipophilicity) = format: physicochemical
HepG2 human liver cells = assay: Triglyceride synthesis in HepG2 cells (14C oleic acid incorporation); format: cell-based; settings: Compound A 0.3 to 3 µM, Compound B 0.1 to 3 µM
Method: (§1) The HT-29 cell line (American Type Culture Collection, Manassas, VA) was maintained in the McCoy’s 5A medium (Life Technologies, Carlsbad, CA) containing 10% fetal bovine serum. The HepG2 cell line (American Type Culture Collection) was maintained in the Dulbecco’s Modified Eagle Medium (Sigma-Aldrich, St. Louis, MO) containing 10% fetal bovine serum. For the experiments, the HT-29 cells were plated in 12-well plates at 3×10^5 cells, the HepG2 cells were plated in 12-well plates at 5×10^5 cells. The cells were cultured in serum-free media for 24 h, and incubated with a compound and oleic acid-albumin (Sigma-Aldrich) solubilized in dimethyl sulfoxide (final 0.1%) for 30 min. The triglyceride synthesis was initiated by the addition of ^14C oleic acid (0.2 µCi). The cells were washed in PBS and harvested into the organic phase using hexane:2-propanol (3∶2) 30 min after initiation of the triglyceride synthesis. The solvent was evaporated, the extracts were solubilized in chloroform, and lipids were separated via TLC. Incorporation of the radiolabel into the triglyceride fraction was analyzed using BAS2000 in triplicate. The IC50 of each compound was calculated using GraphPad Prism.

[1] = Compound distribution in mice (plasma, skin, intestine) after oral 30 mg/kg; format: in vivo, C57BL/6J mice; settings: for Tmax / concentration at 24 h / Kp / Cmax: C57BL/6J, mouse; for Tmax: in vivo; for concentration at 24 h: intestine, 24 h after administration, read-out: C 24 in intestine; for Kp: intestine/plasma, read-out: Intestine/Plasma ratio at T max; for Cmax: plasma, read-out: C max in plasma; for Cmax / C max in intestine / C max in skin: 3 mice
Method: Exposure was analyzed using blood, skin, and intestine samples from the C57BL/6J mice orally treated with 30 mg/kg of a compound. At 1, 4, 8, and 24 h after the administration, mice were anesthetized with isoflurane, and blood, skin, and intestine samples were collected. Three mice were used in each group. The blood samples were collected with sodium heparin, subjected to centrifugation, and plasma samples were collected. The skin and the intestine were homogenized and centrifuged to collect samples. The compound concentrations in each tissue sample with values equal to or greater than the lower limit of quantification (LLOQ; 0.005 µg/ml) were used for analyses (HPLC-MS/MS: Shiseido, Tokyo, Japan, Thermofisher Scientific, Waltham, MA).

[2] = mouse plasma protein binding; format: in vitro ADME
mouse skin homogenates = assay: Triglyceride synthesis in mouse skin homogenates; format: biochemical
[3] = tested on: skin of diet-induced-obese (DIO) mice; assay: Effects on the skin in diet-induced-obese (DIO) mice, 4-week treatment, histopathology; format: in vivo, C57BL/6J mice; settings: 4 weeks; for skin aberrations (histopathology): oral, 30 mg/kg Compound A once daily, 30 mg/kg Compound B twice daily, 30 mg/kg
Method: After 10 weeks on high-fat diet, mice became obese (36±0.24 g). […] After 4 weeks of the treatment, all the animals were sacrificed. The skin (dorsolateral lesion) was removed and then fixed in 10% neutral buffered formalin, processed, embedded in paraffin, cut into thin sections and stained with Hematoxylin and Eosin. Histopathological examinations were performed. The size of the sebaceous glands were measured using WinROOF (Mitani Corporation, Tokyo, Japan).

HT-29 human colon cells = assay: Triglyceride synthesis in HT-29 cells (14C oleic acid incorporation); format: cell-based; settings: Compound A 0.3 to 3 µM, Compound B 0.1 to 3 µM
Method: as §1

[4] = tested on: diet-induced-obese (DIO) mice; assay: Long-time (4-week) treatment in DIO mice; format: in vivo, C57BL/6J mice; settings: 4 weeks
Method: The DIO mice were fed with high-fat diet during the 4-week treatment period. Mice were fasted for 4 hours prior to blood collection. Plasma glucose, insulin, triglyceride, and free fatty acid concentrations were determined by using Glucose CII Test Wako (Wako), ultra sensitive mouse ELISA (Morinaga, Yokohama, Japan), L type WAKO TG H, and HA test WAKO NEFA (Wako), respectively.

[5] = tested on: postprandial hyperlipidemia in mice; assay: Postprandial hyperlipidemia in mice (corn oil load); format: in vivo, C57BL/6J mice
Method: Eight-week-old male C57BL/6J mice were divided into treatment groups, each consisting of 7–8 mice, based on the body weight for the purpose of simplification of dose calculation. […] Blood samples were collected 1, 2, and 3 h later, and the plasma triglyceride level was determined by using WAKO TG H (Wako, Osaka, Japan). The area under the curve (AUC) of plasma triglyceride (AUCtriglyceride) was calculated.

[6] = tested on: glucagon-like peptide-1 (GLP-1) secretion; assay: GLP-1 secretion in mice after corn oil; format: in vivo; settings: oral 10 and 30 mg/kg, 2 h after corn oil
Method: Mice were divided into treatment groups, each consisting of 6–8 mice, based on the body weight for the purpose of simplification of dose calculation. […] Blood samples were collected 2 h later, and the plasma GLP-1 level was determined by using Glucagon Like Peptide-1 (Active) ELISA Kit (Linco Research, Inc., St. Charles, MO).

human DGAT1 = target: T1, human DGAT1 (Homo sapiens, UniProt O75907); assay: DGAT1 enzyme assay (human DGAT1 in Sf9 insect microsomes, 14C decanoyl CoA); format: biochemical; settings: enzyme expressed in insect microsomes; read-out: hDGAT1 IC50
T1 construct: made in house; host or cells: Sf9 insect cells (baculovirus)
T1 sequence (O75907 1-488): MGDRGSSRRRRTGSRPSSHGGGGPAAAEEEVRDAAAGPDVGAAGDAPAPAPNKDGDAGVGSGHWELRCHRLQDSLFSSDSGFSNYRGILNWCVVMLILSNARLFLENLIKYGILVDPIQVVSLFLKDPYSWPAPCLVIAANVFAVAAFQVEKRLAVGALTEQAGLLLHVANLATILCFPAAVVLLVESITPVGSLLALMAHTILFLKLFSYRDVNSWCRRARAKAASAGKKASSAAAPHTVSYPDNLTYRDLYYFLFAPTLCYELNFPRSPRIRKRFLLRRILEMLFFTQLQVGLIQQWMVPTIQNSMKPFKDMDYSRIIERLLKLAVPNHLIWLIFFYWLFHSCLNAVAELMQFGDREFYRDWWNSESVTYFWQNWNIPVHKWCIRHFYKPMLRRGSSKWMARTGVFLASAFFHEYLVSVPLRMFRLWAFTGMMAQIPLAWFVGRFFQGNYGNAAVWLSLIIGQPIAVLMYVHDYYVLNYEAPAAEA
Method: (§2) The effects of the DGAT1 inhibitors were assessed using human (BC015762 from HeLa cell) and mouse DGAT1 (NM_010046 from mouse testis) in Sf9 insect microsomes. […] The Sf9 cells were homogenized and centrifuged at 600 g for 20 min. Thereafter, the supernatant was centrifuged at 10000 g for 1 h and the precipitate was collected as the […].
(§3) The mixture was incubated at room temperature for 45 min. The reaction was stopped by adding 0.5 M HCl and the incubated mixture was filtered using MultiscreenHTS-FB (Millipore, Billerica, MA). The human DGAT1 activity was quantified by counting the radioactivity of synthesized ^14C triglycerides by the Microbeta scintillation counter (PerkinElmer, Waltham, MA) in duplicate. […] Mouse DGAT1 enzyme assays were carried out in the same way.

mouse DGAT1 = target: T2, mouse DGAT1 (Mus musculus, UniProt Q9Z2A7); assay: DGAT1 enzyme assay (mouse DGAT1 in Sf9 insect microsomes, 14C decanoyl CoA); format: biochemical; settings: enzyme expressed in insect microsomes; read-out: mDGAT1 IC50
T2 construct: made in house; host or cells: Sf9 insect cells (baculovirus)
T2 sequence (Q9Z2A7 1-498): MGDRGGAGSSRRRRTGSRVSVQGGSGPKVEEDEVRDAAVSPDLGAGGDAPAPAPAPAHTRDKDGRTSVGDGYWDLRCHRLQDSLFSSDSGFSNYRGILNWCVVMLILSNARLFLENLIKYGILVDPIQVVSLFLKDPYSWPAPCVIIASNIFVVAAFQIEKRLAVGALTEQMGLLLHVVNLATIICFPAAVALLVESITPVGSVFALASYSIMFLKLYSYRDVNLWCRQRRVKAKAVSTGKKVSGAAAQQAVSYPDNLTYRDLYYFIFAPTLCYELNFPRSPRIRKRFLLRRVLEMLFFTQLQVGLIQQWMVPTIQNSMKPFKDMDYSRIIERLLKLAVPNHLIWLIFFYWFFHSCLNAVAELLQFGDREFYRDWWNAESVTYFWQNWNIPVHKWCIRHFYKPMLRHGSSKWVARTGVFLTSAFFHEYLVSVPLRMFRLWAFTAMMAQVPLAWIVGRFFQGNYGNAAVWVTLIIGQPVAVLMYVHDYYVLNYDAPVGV
Method: as §2, §3

SMILES | logD (Log D (lipophilicity)) | inhibition of cellular triglyceride synthesis (HepG2 human liver cells) | Tmax [1] [h] | concentration at 24 h ([1]; means ± SD) [µM] | Kp ([1]; means ± SD) | Cmax ([1]; means ± SD) [µM] | C max in intestine ([1]; means ± SD) [µmol/kg] | C max in skin ([1]; means ± SD) [µmol/kg] | fraction unbound [2] | inhibition of triglyceride synthesis (mouse skin homogenates) | skin aberrations (histopathology) [3] | inhibition of cellular triglyceride synthesis (HT-29 human colon cells) | other results
CC1(C)Oc2ncnc(N)c2N=C1c1ccc([C@H]2CC[C@H](CC(=O)O)CC2)cc1 [Compound A, 4-[4-(4-amino-2,7,7-trimethyl-7H-pyrimido[4,5-b][1], [4]oxazin-6-yl)phenyl]-trans-Cyclohexaneacetic acid] | < 0.9 | at all the concentrations tested | 1 | 24 ± 1.6 | 0.32 | 240 ± 59 | 77 ± 37 | 14 ± 0.62 | 0.032 | inhibited the cellular triglyceride synthesis | skin aberrations derived from atrophy of the sebaceous gland; also recorded: moderate skin aberrations | significant inhibition was observed at 1 and 3 µM | injurious or inflammatory changes of the skin ([3]; 30 mg/kg once daily): no injurious or inflammatory changes; recovery of skin aberrations after compound withdrawal ([3]; 30 mg/kg once daily, then withdrawal): 2 weeks
O=C(Nc1ccccc1)Nc1ccc(-c2ccc(C(=O)[C@@H]3CCC[C@H]3C(=O)O)cc2)cc1 [Compound B, (1R, 2R)-2-[[4′-[[(Phenylamino)carbonyl]amino][1,1′-biphenyl]-4-yl]carbonyl]cyclopentanecarboxylic acid] | < 0.9 | at all the concentrations tested | 1 | 19 ± 3.7 | 10 | 9.1 ± 2.3 | 92 ± 36 | 1.3 ± 0.51 | 0.001 | inhibited the cellular triglyceride synthesis | changes in the skin were not observed; also recorded: no skin aberrations | significant inhibition was observed at 1 and 3 µM | skin/IC50 (C max in skin/mDGAT1 IC50) ([1]; means ± SD): 0.084±0.033; Intestine/Plasma ratio at T max ([1]; means ± SD, 30 mg/kg): 10±2.8; Intestine/Skin ratio at T max ([1]; means ± SD, 30 mg/kg): 74 and 74±8.4; fatty liver (histological analysis) ([4]; 10 or 30 mg/kg): attenuated fatty liver; body weight gain ([4]; oral 1, 3, 10 or 30 mg/kg twice daily): significant attenuation and significant reduction were observed at 10 mg/kg and 30 mg/kg, respectively; concentration of total-cholesterol in the liver ([4]; oral twice daily): significant reduction was observed at 30 mg/kg; concentration of triglyceride in the liver ([4]; oral twice daily): significant reduction was observed at 30 mg/kg; liver weight ([4]; oral twice daily): lack of differences in the liver weight among the groups; plasma glucose levels ([4]; oral twice daily): significant reduction was observed at 30 mg/kg; plasma insulin concentrations ([4]; oral twice daily): tended to decrease; weight of epididymal fat ([4]; oral twice daily): significant reduction was observed at 30 mg/kg; weight of mesenteric fat ([4]; oral twice daily): significant reduction was observed at 30 mg/kg; plasma triglyceride levels after corn oil ([5]; oral 0.3, 1, 3 or 10 mg/kg 12 h before 3 ml/kg corn oil): reduced plasma triglyceride levels with a dose-dependent tendency; dose of maximum efficacy on plasma triglyceride ([5]; oral, 12 h before corn oil): 10 mg/kg; plasma GLP-1 levels after corn oil administration [6]: increased plasma glucagon-like peptide-1 (GLP-1) levels; IC50 (human DGAT1): 0.0084 µM; IC50 (mouse DGAT1): 0.0155 µM
